Key:
[1] = Bioavailability in rat after 120 minutes at an oral dose of 2.5 mg/kg; type: ADME, organism-based; conditions: plasma
[2] = Bioavailability in rat after 30 minutes at an oral dose of 2.5 mg/kg; type: ADME, organism-based; conditions: plasma
[3] = species: Cavia porcellus; test: Selectivity ratio between CCK-B and CCK-A receptor; parameters: reference not given here
[4] = target: T1, Cholecystokinin receptor type A (Rattus norvegicus, UniProt P30551); test: (§1) Inhibition of binding of [125I]CCK-8 to cholecystokinin type A receptor in rat pancreatic tissue
T1 sequence (P30551 whole entry): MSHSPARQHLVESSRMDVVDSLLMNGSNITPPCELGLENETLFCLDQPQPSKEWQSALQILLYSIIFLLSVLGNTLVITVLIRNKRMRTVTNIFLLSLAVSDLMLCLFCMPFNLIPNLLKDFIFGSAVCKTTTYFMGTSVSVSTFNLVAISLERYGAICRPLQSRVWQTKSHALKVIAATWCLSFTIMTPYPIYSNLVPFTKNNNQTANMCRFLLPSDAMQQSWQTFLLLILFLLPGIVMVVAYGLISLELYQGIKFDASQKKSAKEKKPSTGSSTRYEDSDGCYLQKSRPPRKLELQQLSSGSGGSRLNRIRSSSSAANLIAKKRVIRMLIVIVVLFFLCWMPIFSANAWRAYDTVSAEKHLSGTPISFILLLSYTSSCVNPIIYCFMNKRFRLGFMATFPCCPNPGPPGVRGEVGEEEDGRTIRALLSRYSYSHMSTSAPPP

[5] = target: T2, Cholecystokinin receptor type A (Rattus norvegicus) (UniProt P30551); test: as §1; parameters: concentration or dose not given beside the values; conditions: concentration not given here
T2 sequence (whole entry): T1 sequence (P30551 whole entry)

[6] = test system: Mus musculus; test: Effective dose required to antagonise pentagastrin stimulated acid secretion in mouse when administered iv 5 min prior to pentagastrin; type: functional
[7] = test system: Mus musculus; test: Effective dose required to antagonise pentagastrin stimulated acid secretion in mouse when administered iv 60-80 min prior to pentagastrin; type: functional
[8] = test system: Mus musculus; test: Effective dose required to antagonise pentagastrin stimulated acid secretion in mouse when administered orally 85-100 min prior to pentagastrin; type: functional; conditions: po
[9] = Inhibition of binding of [125I]-CCK-8 to the cholecystokinin type B receptor

Structure (SMILES) | Selectivity ratio [3] | IC50 [4] [nM] | also measured
Cc1cccc(NC(=O)NC2N=C(c3ccccc3)c3ccccc3N(CCO)C2=O)c1 (racemic) | 6 | 270 | concentration at 2 h [1]: 95 ng/mL; concentration at 0.5 h [2]: 156 ng/mL
CN1C(=O)C(NC(=O)Nc2ccc(Cl)nc2)N=C(c2ccccc2)c2ccccc21 (stereo not given) | > 65 | – | inhibition [5]: 23%
O=C(Nc1ccc(Cl)cc1)NC1N=C(c2ccccc2)c2ccccc2N(C[C@@H](O)CCl)C1=O (mixture of isomers) | > 500 | – | inhibition [5]: > 15%
Cc1cccc(NC(=O)N[C@@H]2N=C(c3ccccc3)c3ccccc3N(C)C2=O)c1 [L-365260] | – | – | concentration at 2 h [1]: 194 ng/mL; concentration at 0.5 h [2]: 172 ng/mL
CCN(CC)C[C@H](O)CN1C(=O)C(NC(=O)Nc2ccc(Cl)cc2)N=C(c2ccccc2)c2ccccc21 (mixture of isomers) | > 7 | – | inhibition [5]: > 14%
O=C(Nc1ccc(Cl)cc1)NC1N=C(c2ccccc2)c2ccccc2N(C[C@@H](O)CO)C1=O (mixture of isomers) | > 30 | – | inhibition [5]: > 9%
CN1C(=O)C(NC(=O)Nc2cccc(C(F)(F)F)c2)N=C(c2ccccc2)c2ccccc21 (stereo not given) | 195 | 740 | concentration at 2 h [1]: 102 ng/mL; concentration at 0.5 h [2]: 120 ng/mL
Cc1cccc(NC(=O)NC2N=C(c3ccccc3)c3ccccc3N(CCN(C)C)C2=O)c1 (racemic) | 73 | 1890 | concentration at 0.5 h [2]: 75 ng/mL
Cc1cccc(NC(=O)NC2N=C(c3cccnc3)c3ccccc3N(C)C2=O)c1 (racemic) | 25 | 2300 | concentration at 2 h [1]: 191 ng/mL; concentration at 0.5 h [2]: 219 ng/mL
Cc1cccc(NC(=O)N[C@@H]2N=C(c3ccccc3)c3ccccc3NC2=O)c1 | 95 | 3800 | –
Cc1cccc(NC(=O)NC2N=C(c3ccccc3)c3ccccc3N(CC(=O)ON3CCC[C@@H]3C(=O)O)C2=O)c1 (mixture of isomers) | 15 | 20000 | –
CN1C(=O)C(NC(=O)Nc2ccccn2)N=C(c2ccccc2)c2ccccc21 (racemic) | 1.3 | 447 | –
C#Cc1cccc(NC(=O)NC2N=C(c3ccccc3)c3ccccc3N(C)C2=O)c1 (stereo not given) | 18 | 402 | –
COc1cccc(NC(=O)NC2N=C(c3ccccc3)c3ccccc3N(CC(=O)N3CCCC3)C2=O)c1 (racemic) | 708 | 170 | –
CN1C(=O)[C@H](NC(=O)NCc2cccc(O)c2)N=C(c2ccccc2)c2ccccc21 | 1 | 21 | –
CN1C(=O)C(NC(=O)Nc2ccc3ncccc3c2)N=C(c2ccccc2)c2ccccc21 (racemic) | 6 | 310 | –
CN1C(=O)[C@H](NC(=O)Nc2cccc(CN)c2)N=C(c2ccccc2)c2ccccc21 | 0.22 | 160 | –
CCN(CC)C(=O)CN1C(=O)C(NC(=O)Nc2ccccc2Cl)N=C(c2ccccc2)c2ccccc21 (racemic) | 53 | 200 | –
COc1cccc(NC(=O)NC2N=C(c3ccccc3)c3ccccc3N(CCN(C)C)C2=O)c1 (racemic) | 16 | 3090 | –
CCN(CC)C(=O)C(C)N1C(=O)C(NC(=O)Nc2ccc(Cl)cc2)N=C(c2ccccc2)c2ccccc21 (racemic) | 19 | 410 | –
CN1C(=O)C(NC(=O)Nc2cccc3ccccc23)N=C(c2ccccc2)c2ccccc21 (racemic) | 0.9 | 68 | –
CCOC(=O)CCN1C(=O)C(NC(=O)Nc2cccc(OC)c2)N=C(c2ccccc2)c2ccccc21 (racemic) | 340 | 340 | –
CN1C(=O)C(NC(N)=O)N=C(c2ccccc2)c2ccccc21 (racemic) | > 0.5 | 55000 | –
CCOC(=O)CN1C(=O)C(NC(=O)N[C@@H](C)c2ccccc2)N=C(c2ccccc2)c2ccccc21 (mixture of isomers) | < 48 | 4800 | –
COc1cccc(NC(=O)NC2N=C(c3ccccc3)c3ccccc3N(CCC(=O)O)C2=O)c1 (racemic) | 0.036 | 9 | –

Structure (SMILES) | Selectivity ratio [3] | IC50 [4] [nM] | also measured
CN1C(=O)[C@@H](NC(=O)Nc2ccccc2Cl)N=C(c2ccccc2)c2ccccc21 | < 0.01 | 0.26 | –
O=C(Nc1ccc(Cl)cc1)NC1N=C(c2ccccc2)c2ccccc2NC1=O (racemic) | 0.4 | 110 | –
Cc1cccc(NC(=O)NC2N=C(c3ccccc3)c3ccccc3N(CCOC(=O)CCC(=O)O)C2=O)c1 (racemic) | 5 | 37 | –
Cc1cccc(NC(=O)NC2N=C(c3ccccc3)c3ccncc3N(C)C2=O)c1 (racemic) | < 0.01 | 144 | –
CCOC(=O)CN1C(=O)C(NC(=O)Nc2ccc(Cl)cc2)N=C(c2ccccc2F)c2ccccc21 (racemic) | 183 | – | ED50 [6]: 0.7 mg/kg; ED50 [7]: > 2 mg/kg; ED50 [8]: 6 mg/kg; IC50 [9]: 1.2 nM
CN1C(=O)[C@@H](NC(=O)Nc2ccc(Cl)cc2)N=C(c2ccccc2)c2ccccc21 | 0.1 | 110 | –
CN1C(=O)C(NC(=O)Nc2ccc3c(c2)OCO3)N=C(c2ccccc2)c2ccccc21 (stereo not given) | > 100 | – | inhibition [5]: > 3%
CN1C(=O)C(NC(=O)Nc2ccc3c(c2)CCC3)N=C(c2ccccc2)c2ccccc21 (stereo not given) | 333 | 900 | –
Cc1cccc(NC(=O)NC2N=C(c3ccccc3)c3ccccc3N(CC(=O)Nc3ccncc3)C2=O)c1 (racemic) | 23 | 1100 | –
CN1C(=O)C(NC(=O)Nc2cccc(C#N)c2)N=C(c2ccccc2)c2ccccc21 (stereo not given) | 115 | 3100 | –
O=C(Nc1ccc(Cl)cc1)NC1N=C(c2ccccc2)c2ccccc2N(C[C@@H](O)CN2CCCC2)C1=O (mixture of isomers) | > 10 | – | inhibition [5]: > 16%
CC(=O)c1cccc(NC(=O)NC2N=C(c3ccccc3)c3ccccc3N(C)C2=O)c1 (stereo not given) | 361 | 1300 | –
Cc1cccc(NC(=O)NC2N=C(c3ccccc3)c3ccccc3N(CC(=O)O)C2=O)c1 (racemic) | 0.02 | 7.6 | –
CN1C(=O)C(NC(=O)Nc2cccc(CNC(=O)OC(C)(C)C)c2)N=C(c2ccccc2)c2ccccc21 (stereo not given) | 1 | 200 | –
O=C(Nc1ccc(Cl)cc1)N[C@H]1N=C(c2ccccc2)c2ccccc2N(CC(=O)N2CCCC2)C1=O | 192 | 2500 | –
CN1C(=O)C(NC(=O)Nc2ccc(N)nc2)N=C(c2ccccc2)c2ccccc21 (stereo not given) | 6 | 3000 | –
Cc1cccc(NC(=O)NC2N=C(c3ccccc3)c3ccccc3N(CC(=O)N3CC[N+](C)(C)CC3)C2=O)c1 (racemic) | 107 | 6200 | –
COc1ccc(NC(=O)NC2N=C(c3ccccc3)c3ccccc3N(C)C2=O)cc1 (racemic) | 6 | 165 | –
CCOC(=O)CN1C(=O)C(NC(=O)c2ccc(Cl)cc2)N=C(c2ccccc2F)c2ccccc21 (racemic) | 0.06 | – | IC50 [9]: 1900 nM
CN1C(=O)C(NC(=O)Nc2cccc(CC(=O)O)c2)N=C(c2ccccc2)c2ccccc21 (stereo not given) | 12 | 61 | –
CN1C(=O)[C@H](NC(=O)Nc2cccc(O)c2)N=C(c2ccccc2)c2ccccc21 | 1 | 60 | –
CN1C(=O)C(NC(=O)Nc2ccc3ccccc3n2)N=C(c2ccccc2)c2ccccc21 (stereo not given) | 7 | 180 | –
O=C(Nc1ccc(Cl)cc1)NC1N=C(c2ccccc2)c2ccccc2N(CC(=O)N2CCCC2)C1=O (racemic) | 625 | 1000 | –
Cc1ccc(NC(=O)NC2N=C(c3ccccc3)c3ccccc3N(C)C2=O)cc1C (stereo not given) | 14 | 310 | –
CN1C(=O)[C@H](NC(=O)Nc2cccc(I)c2)N=C(c2ccccc2)c2ccccc21 | 116 | 800 | –

From ChEMBL document CHEMBL1126970, “Development of 1,4-benzodiazepine cholecystokinin type B antagonists” (J Med Chem, 1993)
